Data published in patent publication US10940139B2, “Compounds that interact with the Ras superfamily for the treatment of cancers, inflammatory diseases, rasopathies, and fibrotic disease” (Shy Therapeutics LLC, priority 2017, dated 2021).

Columns and labels:
[1] = tested on: IL6 production in RAW 264.7 macrophage cell line; assay: Mouse IL6 quantification assay (LPS-stimulated macrophages, ELISA); format: cell-based; conditions: RAW264.7, RAW 264.7 murine leukemia virus transformed macrophage cell lines, LPS stimulation, read-out: IL-6 % Inhibition at 30 μM
[2] = tested on: TNFα production in RAW 264.7 macrophage cell line; assay: Mouse TNF alpha quantification assay (LPS-stimulated macrophages, ELISA); format: cell-based; conditions: RAW264.7, RAW 264.7 murine leukemia virus transformed macrophage cell lines, LPS stimulation, read-out: TNF-α % Inhibition at 30 μM

Row | Structure (SMILES) | inhibition at 30 µM [1] [%] | inhibition at 30 µM [2] [%]
1 | CCN(CC)CCOc1nc(-c2nccn2C)nc2sc(-c3ccccc3)c(-c3ccccc3)c12 [drawing 2400] | 76 to 100 | 76 to 100
2 | Cc1sc2nc(-c3ccccn3)nc(NCCc3nccn3C)c2c1-c1ccccc1 [drawing 2134] | 1 to 25 | 0
3 | COc1ccc2c(ccn2CC(=O)Nc2nnc(-c3ccccn3)[nH]2)c1 [drawing 1940] | 26 to 50 | 1 to 25
4 | CC(=O)N1CCN(c2nc(-c3ccccn3)nc3scc(-c4ccccc4)c23)CC1 [drawing 2162] | 26 to 50 | 26 to 50
5 | Cc1sc2c(N)nc(-c3ccccn3)nc2c1Br [drawing 2285] | 1 to 25 | 0
6 | CC(C)c1nn(C)cc1-c1csc2c(O)nc(-c3ccccn3)nc12 [drawing 2322] | 76 to 100 | 1 to 25
7 | Oc1nc(-c2ccccn2)nc2c(-c3cccc4c3OCO4)csc12 [drawing 2242] | 51 to 75 | 51 to 75
8 | CC1(O)CCN(C(=O)c2csc3c(O)nc(-c4ccccn4)nc23)CC1 [drawing 2110] | 51 to 75 | 0
9 | Cc1sc2c(O)nc(-c3nccn3C)nc2c1-c1ccc(OC(C)C)c(F)c1 [drawing 2437] | 51 to 75 | 0
10 | COc1ncc(CCNC(=O)c2csc3nc(-c4ccccn4)nc(N4CCOCC4)c23)cn1 [drawing 2175] | 1 to 25 | 0
11 | CS(=O)(=O)Cc1ccc(C(=O)Nc2nc(-c3ccccn3)cs2)cc1 [drawing 2013] | 0 | 1 to 25
12 | CC(CO)Nc1nc(-c2nccn2C)nc2sc(-c3ccccc3)c(-c3ccccc3)c12 (stereo not drawn) [drawing 2405] | 51 to 75 | 1 to 25
13 | O=C(c1cc2nc(-c3ccccn3)nc(O)c2s1)N1CCOC(c2ccccc2)C1 (stereo not drawn) [drawing 2235] | 1 to 25 | 1 to 25
14 | O=C(Cc1ccc(F)cc1)Nc1nnc(-c2ccccn2)[nH]1 [drawing 1970] | 1 to 25 | 1 to 25
15 | COc1cnc(CN)[nH]c1=O [drawing 2212] | 0 | 1 to 25
16 | O=C(c1cc2nc(-c3ccccn3)nc(O)c2s1)N1CCN(c2ccccc2)CC1 [drawing 2234] | 26 to 50 | 0
17 | Cc1cccc(C)c1OCCOC(=O)c1ccccc1SCCOc1c(C)cccc1C [drawing 2069] | 1 to 25 | 0
18 | Oc1nc(-c2ccccn2)nc2c(-c3cncnc3)csc12 [drawing 2326] | 26 to 50 | 0
19 | COCC1CCN(C(=O)c2csc3c(O)nc(-c4ccccn4)nc23)CC1 [drawing 2102] | 76 to 100 | 1 to 25
20 | Oc1nc(-c2ccccn2)nc2c(C3CCCCC3)csc12 [drawing 2336] | 0 | 0
21 | CC(C)(O)c1ccc(-c2csc3c(O)nc(-c4ccccn4)nc23)c(F)c1 [drawing 2272] | 76 to 100 | 76 to 100
22 | O=S1(=O)CCC(N2CCN(c3nc(-c4ccccn4)nc4scc(-c5ccccc5)c34)CC2)C1 (stereo not drawn) [drawing 2145] | 1 to 25 | 1 to 25
23 | COc1cc(C)c(-c2csc3c(O)nc(-c4ccccn4)nc23)cc1C [drawing 2261] | 51 to 75 | 0
24 | Nc1nc(O)c2sc(-c3cccc(C(=O)N4CCC(O)C4)c3)cc2n1 (stereo not drawn) [drawing 2370] | 0 | 0
25 | O=C(NCCc1ccnc(O)n1)c1csc2nc(-c3ccccn3)nc(N3CCOCC3)c12 [drawing 2290] | 1 to 25 | 0
26 | COc1cnc(-c2cnc[nH]2)nc1O [drawing 2343] | 1 to 25 | 0
27 | CC(Oc1ccccc1Cl)C(=O)Nc1nnc(-c2ccccn2)[nH]1 (stereo not drawn) [drawing 1937] | 26 to 50 | 1 to 25
